Earlier results as cited in patent US11007152B2, “Pharmaceutical composition comprising amorphous lenalidomide and an antioxidant” (Synthon B.V., priority 2015, dated 2021).

solubility in water: slightly soluble
Structure (SMILES): Nc1cccc2c1CN(C1CCC(=O)NC1=O)C2=O (racemic) [Lenalidomide, (RS)-3-(4-Amino-1-oxo 1,3-dihydro-2H-isoindol-2-yl)piperidine-2,6-dione]
